pEC50: −log10 of the molar value.
Tests used:
[1] = in vitro; details: African green monkey
[2] = tested on: SARS-CoV-2 mediated cell-to-cell fusion; format: cell-based; details: 0.8 to 25 μM; 24 h
[3] = tested on: sphingomyelin on the plasma membrane in Vero E6 cells; format: cell-based; details: 5 μM, 30 min, versus control (DMSO)
[4] = tested on: high fat diet-induced obesity mice models; details: oral intake; cited from earlier work
[5] = tested on: SARS-CoV-2 (WK-521, ancestral strain); test: SARS-CoV-2 inhibition MTT assay in Vero E6/TMPRSS2 cells; format: cell-based; details: for pEC50: Severe acute respiratory syndrome coronavirus 2, VeroE6/TMPRSS2; for Selectivity index: between EC50 and CC50, WK-521, Vero E6/TMPRSS2 cells

In the case of `O=C(CCCCCCCCc1ccc(O)c(O)c1)c1c(O)cccc1O` [Compound 1, Malabaricone C], the CC50 [1] was 14 µM, the “inhibition of cell fusion (yellow hypertrophic cells)” value [2] was “increased in a dose-dependent manner” and the “fluorescence intensity of EGFP-NT-Lys on the plasma membrane (clustered SM)” value [3] was “lower than that of the control”. The “fluorescence intensity of EqtII-EGFP (dispersed SM)” value [3] was “almost no difference”, the “efficacies in high fat diet-induced obesity mice” value [4] was “reducing weight gain, improving glucose tolerance, and reducing hepatic steatosis” and the pEC50 [5] was 5.82. For the same compound, the Selectivity index [5] was 9.7.

For `CCC(CC)COC(=O)[C@H](C)N[P@](=O)(OC[C@H]1O[C@@](C#N)(c2ccc3c(N)ncnn23)[C@H](O)[C@@H]1O)Oc1ccccc1` [Remdesivir], the CC50 [1] was greater than 10 µM and the pEC50 [5] was 6.30.

In the case of `CCCCCC/C=C\CCCCCCCc1cccc(O)c1C(=O)O` [Ginkgolic acid], the pEC50 [5] was 5.10.

`CC(C)C(=O)OC[C@H]1O[C@@H](n2ccc(NO)nc2=O)[C@H](O)[C@@H]1O` [Molnupiravir] showed a CC50 [1] of 5.3 µM, a pEC50 [5] of 6.82 and a Selectivity index [5] of 33.8.
